Test results as given in ChEMBL document CHEMBL5634151, “Anti-adipogenic action of a novel oxazole derivative through activation of AMPK pathway” (Eur J Med Chem, 2023).
Calls of active or inactive are those of the source.

Key:
[1] = tested on: 3T3-L1; assay: Anti-adipogenic activity in MDI-cocktail differentiated mouse 3T3-L1 pre-adipocyte cells assessed as increase in AMPK phosphorylation at Thr172 residue at 5 uM measured for 3 to 7 days by immunoblotting analysis; type: functional, cell-based; settings: time 3-7 day
[2] = tested on: Syrian golden hamster; assay: Hepatoprotective activity in high-fat diet induced Syrian golden hamster model assessed as reduction in serum ALT level at 25 to 50 mg/kg, po administered for 7 days; type: functional, organism-based; settings: Mesocricetus auratus, dose 25-50 mg/kg, time 7.0 day
[3] = tested on: 3T3-L1; assay: Activation of AMPK pathway in mouse 3T3-L1 mature adipocyte cells assessed as reversal of 6-(4-(2-(piperidin-1-yl)ethoxy)phenyl)-3-(pyridin-4yl)pyrazolo[1,5-a]pyrimidine induced AMPK inhibition at 5 uM incubated for 24 hrs by immunoblotting analysis; type: cell-based; settings: filed as activator
[4] = tested on: Syrian golden hamster; assay: Anti-obesity activity in high-fat diet induced Syrian golden hamster model assessed as reduction in lean mass at 50 mg/kg, po administered for 7 days by 1H NMR spectroscopy-based Echo MRI system; type: functional, organism-based; settings: Mesocricetus auratus, time 7.0 day
[5] = Toxicity in high-fat diet induced Syrian golden hamster obese model assessed as effect on food intake at 25 to 50 mg/kg, po administered for 7 days and measured daily; type: organism-based, Mesocricetus auratus; settings: in vivo, 168 h, dose 25-50 mg/kg, time 7 day
[6] = tested on: 3T3-L1; assay: Activation of AMPK pathway in MDI-cocktail differentiated mouse 3T3-L1 pre-adipocyte cells assessed as reversal of 6-(4-(2-(piperidin-1-yl)ethoxy)phenyl)-3-(pyridin-4yl)pyrazolo[1,5-a]pyrimidine induced AMPK inhibition at 5 uM incubated for 72 hrs by immunoblotting analysis; type: cell-based; settings: filed as activator
[7] = tested on: 3T3-L1; assay: Induction of mitochondrial respiration in MDI-cocktail differentiated mouse 3T3-L1 pre-adipocyte cells assessed as increase in oxygen consumption rate at 5 uM incubated for 72 hrs by Seahorse XFp flux analyzer; type: functional, cell-based
[8] = tested on: 3T3-L1; assay: Induction of maximum respiration during early phase in MDI-cocktail differentiated mouse 3T3-L1 pre-adipocyte cells 5 uM incubated for 72 hrs by Seahorse XFp flux analyzer; type: functional, cell-based
[9] = tested on: 3T3-L1; assay: Anti-adipogenic activity in MDI-cocktail differentiated mouse 3T3-L1 pre-adipocyte cells assessed as reduction in adipogenic differentiation at 5 uM measured after 3 to 7 days by Oil Red O staining based microscopic analysis; type: functional, cell-based; settings: time 3-7 day
[10] = tested on: 3T3-L1; assay: Anti-adipogenic activity in MDI-cocktail differentiated mouse 3T3-L1 pre-adipocyte cells assessed as reduction in FASN protein expression at 5 uM measured for 3 to 7 days by immunoblotting analysis; type: functional, cell-based; settings: time 3-7 day
[11] = tested on: 3T3-L1; assay: Inhibition of MDI-cocktail induced adipogenic differentiation in mouse 3T3-L1 pre-adipocyte cells assessed as reduction in PPARgamma gene expression at 5 uM by qRT-PCR analysis; type: functional, cell-based
[12] = tested on: 3T3-L1; assay: Activation of AMPK in mouse 3T3-L1 mature adipocytes assessed as increase in AMPK phosphorylation at Thr172 residue incubated for 24 hrs by Western blot analysis; type: cell-based; settings: filed as activator, dose 1-5 µM
[13] = tested on: 3T3-L1; assay: Inhibition of MDI-cocktail induced adipogenic differentiation in mouse 3T3-L1 pre-adipocyte cells assessed as reduction in FASN gene expression at 5 uM by qRT-PCR analysis; type: functional, cell-based
[14] = tested on: Syrian golden hamster; assay: Anti-obesity activity in high-fat diet induced Syrian golden hamster model assessed as rescue of normal liver weight at 25 to 50 mg/kg, po administered for 7 days; type: functional, organism-based; settings: Mesocricetus auratus, dose 25-50 mg/kg, time 7.0 day
[15] = tested on: 3T3-L1; assay: Induction of cell cycle arrest in MDI-cocktail differentiated mouse 3T3-L1 pre-adipocyte cells assessed as reduction in CDK2 protein expression at 5 uM measured after 16 to 24 hrs by immunoblotting analysis; type: functional, cell-based; settings: time 16-24 hrs
[16] = tested on: 3T3-L1; assay: Cytotoxicity against mouse 3T3-L1 pre-adipocyte cells assessed as reduction in cell viability at 20 uM incubated for 48 hrs by MTT assay; type: toxicity, cell-based; settings: 3t3-l1, 48 h
[17] = tested on: 3T3-L1; assay: Upregulation of CIV-MTCO1 protein expression in mouse 3T3-L1 mature adipocytes at 1 to 5 uM incubated for 24 hrs by Western blot analysis; type: functional, cell-based; settings: dose 1-5 µM
[18] = tested on: 3T3-L1; assay: Induction of mitochondrial respiration in MDI-cocktail differentiated mouse 3T3-L1 pre-adipocyte cells assessed as increase in oxygen consumption rate at 5 uM incubated for 72 hrs in presence of oligomycin by Seahorse XFp flux analyzer; type: functional, cell-based
[19] = tested on: 3T3-L1; assay: Inhibition of MDI-cocktail induced adipogenic differentiation in mouse 3T3-L1 pre-adipocyte cells assessed as reduction in C/EBPalpha protein expression at 0.5 to 5 uM by Western blot analysis; type: functional, cell-based; settings: dose 0.5-5 µM
[20] = tested on: C3H 10T1/2; assay: Anti-adipogenic activity in MDI-cocktail differentiated mouse C3H 10T1/2 cells assessed as reduction in adipogenic differentiation at 5 uM measured after 0 to 7 days by Oil Red O staining based microscopic analysis; type: functional, cell-based; settings: time 0-7 day
[21] = tested on: Syrian golden hamster; assay: Anti-dyslipidaemic activity in high-fat diet induced Syrian golden hamster model assessed as assessed as reduction in serum total cholesterol level at 25 to 50 mg/kg, po administered for 7 days; type: functional, organism-based; settings: Mesocricetus auratus, dose 25-50 mg/kg, time 7.0 day
[22] = tested on: 3T3-L1; assay: Anti-adipogenic activity in MDI-cocktail differentiated mouse 3T3-L1 pre-adipocyte cells assessed as reduction in FABP4 protein expression at 5 uM measured for 3 to 7 days by immunoblotting analysis; type: functional, cell-based; settings: time 3-7 day
[23] = tested on: 3T3-L1; assay: Anti-adipogenic activity in MDI-cocktail differentiated mouse 3T3-L1 pre-adipocyte cells assessed as reduction in C/EBPalpha protein expression at 5 uM measured for 3 to 7 days by immunoblotting analysis; type: functional, cell-based; settings: time 3-7 day
[24] = tested on: 3T3-L1; assay: Inhibition of MDI-cocktail induced adipogenic differentiation in mouse 3T3-L1 pre-adipocyte cells assessed as increase in AMPK phosphorylation at Thr172 residue by Western blot analysis; type: functional, cell-based; settings: dose 0.5-5 µM
[25] = tested on: 3T3-L1; assay: Induction of cell cycle arrest in MDI-cocktail differentiated mouse 3T3-L1 pre-adipocyte cells assessed as reduction in cyclin D3 protein expression at 5 uM measured after 16 to 24 hrs by immunoblotting analysis; type: functional, cell-based; settings: time 16-24 hrs
[26] = tested on: 3T3-L1; assay: Anti-adipogenic activity in MDI-cocktail differentiated mouse 3T3-L1 pre-adipocyte cells assessed as inhibition of adipogenesis at 0.1 uM by Oil Red O staining based microscopic analysis; type: functional, cell-based
[27] = tested on: C3H 10T1/2; assay: Anti-adipogenic activity in MDI-cocktail differentiated mouse C3H 10T1/2 cells assessed as reduction in adipogenic differentiation at 5 uM measured after 3 to 7 days by Oil Red O staining based microscopic analysis; type: functional, cell-based; settings: time 3-7 day
[28] = tested on: Mesocricetus auratus; assay: In vivo activation of AMPK in high-fat diet induced Syrian golden hamster model assessed as increase in AMPK phosphorylation at Th172 residue in eWAT at 50 mg/kg, po administered for 7 days by Western blot analysis; type: functional, organism-based; settings: time 7.0 day
[29] = tested on: 3T3-L1; assay: Induction of mitochondrial respiration in MDI-cocktail differentiated mouse 3T3-L1 pre-adipocyte cells assessed as increase in oxygen consumption rate at 5 uM incubated for 72 hrs in presence of FCCP by Seahorse XFp flux analyzer; type: functional, cell-based
[30] = tested on: 3T3-L1; assay: Induction of cell cycle arrest in MDI-cocktail differentiated mouse 3T3-L1 pre-adipocyte cells assessed as reduction in cyclin D1 protein expression at 5 uM measured after 16 to 24 hrs by immunoblotting analysis; type: functional, cell-based; settings: time 16-24 hrs
[31] = tested on: 3T3-L1; assay: Inhibition of MDI-cocktail induced adipogenic differentiation in mouse 3T3-L1 pre-adipocyte cells assessed as reduction in FASN protein expression at 0.5 to 5 uM by Western blot analysis; type: functional, cell-based; settings: dose 0.5-5 µM

Cc1ccc(-c2cnc(-c3ccc[n+](Cc4cccc(C)c4)c3)o2)cc1.[Br-]
Non-Toxic: Activity [5] | Activity [16]
inactive: Activity [14]
active: Activity [1] | Activity [2] | Activity [3] | Activity [4] | Activity [6] | Activity [7] | Activity [8] | Activity [9] | Activity [10] | inhibition [11] | Activity [12] Dose-Dependent Effect | inhibition [13] | Activity [15] | Activity [17] | Activity [18] | inhibition [19] | Activity [20] | Activity [21] | Activity [22] | Activity [23] | inhibition [24] Dose-Dependent Effect | Activity [25] | Activity [26] | Activity [27] | Activity [28] | Activity [29] | Activity [30] | inhibition [31]
